2 molecules from patent US4749701A, “Aminostyryl compound, leukotriene antagonistic composition containing the same as effective ingredients and method of antagonizing SRS by employing the same” (Mitsubishi Chemical Industries Limited, priority 1986, dated 1988) can be followed below.

The series in a line: Acute toxicity test. The following applies: mouse, in vivo. As to the method: With 4 to 5 ddy-strain male mice of 6 weeks old as one group, the compound of the present invention was orally administered as a suspension in 1% tragacanth solution, and observation was conducted for 7 days and the number of dead mice was examined to obtain the results shown in Table 3.

Where a name gives a salt, the structure may show the parent alone.

On to `O=C(O)C=CC(=O)Nc1cccc(C=Cc2ccc3ccccc3n2)c1` [compound 45], for which, under “oral, suspension in 1% tragacanth, male ddy mice, 6 weeks old, observed for 7 days”, the LD50 at 168 h was greater than 1000 mg/kg.

Turning to `O=C(O)CCC(=O)Nc1cccc(/C=C/c2ccc3ccccc3n2)c1` [compound 32, 2-[trans-3-(3-carboxypropanamide)styryl]quinoline.sodium salt], where the note is “po”, the LD50 at 168 h is greater than 1000 mg/kg.

Broadly, the LD50 is the dose expected to kill half of the subjects tested. A high value points to a less toxic substance.
